The values that follow come from patent US20130084379A1, “ACTIVE INGREDIENT DELIVERY SYSTEM” (FIRMENICH SA, priority 2010, published 2013).

The series is described as follows: Dissolution kinetics in a model beverage base (Distek 2100B USP 2 dissolution system, UV/VIS probe at 324 nm). Format: physicochemical. To be noted: 200 rpm, 20 ppm nominal. The procedure:
The dissolution kinetics of the powder prepared in example 1 was compared to that of Compound 1 alone. Evaluation was performed under standard conditions using a Distek 2100B USP 2 dissolution system and a model beverage base.
The model beverage was prepared by stirring together 35 g sucrose, 1.5 g citric acid and 965.3 g deionised water until the sucrose was fully dissolved. Comparative sample 1 was prepared by adding 20 mg of Compound 1 (unencapsulated) to 1 litre of the beverage base to provide 20 ppm of compound 1. Sample 2 was prepared by adding 200 mg of the powder prepared in example 1 to 1 litre of the beverage to provide, once dissolved, a solution containing 20 ppm of compound 1. The samples were each stirred at 200 rpm and the concentration of compound 1 in solution was monitored as a function of time using a UV/VIS spectrometer probe (measuring absorbance at 324 nm). The results are given in the following table (where the values represent the amount (ppm) of Compound 1 in solution: […]

Turning to `CCCNC(=O)C(C)(C)COc1cccc2c1C(N)=NS(=O)(=O)N2` [Sample 1], the “time at which 50% dissolution of Compound 1 was achieved” value is “approximately 3600 seconds”. Also, for the setting “time 0 seconds”, the “Concentration in Solution (amount of Compound 1 in solution)” value (shortened to “Concentration in Solution”) was determined as 0 ppm. Under “time 10 seconds”, the “Concentration in Solution” value came to 0.1 ppm. Where the note is “time 30 seconds”, the “Concentration in Solution” value is 0.2 ppm. Further, the “Concentration in Solution” value (time 60 seconds) is 0.3 ppm. In addition, the “Concentration in Solution” value (time 300 seconds) is reported as 0.6 ppm. The “Concentration in Solution” value (time 600 seconds) is 1.4 ppm. Moreover, the “Concentration in Solution” value (time 3600 seconds) came to 10.2 ppm.
